Measurements taken from patent publication US7763615B2, “Ecteinascidin analogs for use as antitumour agents” (priority 2001, dated 2010).
In brackets after ≈: the same amount, converted by molar mass.

Tests used:
physchem [1] = details: pH 7.4, aqueous buffer, Solubility Dulbecco's PBS pH 7.4
[2] = system: NRK-52E, normal rat kidney cells; details: 24 h
Description: (§2) In order to assess the cytotoxicity of the drugs to normal cells, we used 96 well plates plated at a density of 5000 cells per well (except for the FDC-P1 which were plated at 12,000 cells per well) with normal cell lines (ATCC, Table 1) maintained as per the directions of the ATCC: AML-12, normal mouse liver cells; NRK-52E, normal rat kidney cells; L8, normal rat skeletal muscle cells; FDC-P1, normal mouse myelogeous stem cells; and H9c2 (2-1), normal rat cardiac muscle cells. The cells in each plate were permitted to settle overnight before adding the test drug.
(§3) To each well (100 μl medium) 10 μl of drug in media was added at varying concentrations (1×10-10-0.01 mg/ml final concentration) and further incubated overnight at 37° C. with 5% CO2. After 24 h the following assays were performed. All experiments were repeated at least 3 times and were assayed in duplicate.
(§4) MTS assay (CellTiter 96 aqueous) was performed according to the manufacturer's (Promega) directions (for all cell types). Cell viability (mitochondrial activity) is determined via enzymatic conversion of the formazan substrate.

[3] = system: L8, normal rat skeletal muscle cells; details: 24 h
[4] = system: H9c2 (2-1), normal rat cardiac muscle cells; details: 24 h
Description: as §2, §3, §4

[5] = system: FDC-P1, normal mouse myelogeous stem cells; details: 24 h
Description: as §2, §3, §4

physchem [6] = details: pH 7.4, log D n-Octanol-Dulbecco's PBS pH 7.4
[7] = system: AML-12, normal mouse liver cells; details: 24 h
CYP3A4 = CYP3A4 (Homo sapiens, UniProt P08684); experiment: in vitro; details: CYP3A4 (% inhibition)
Description: For CYP3A4 inhibition assay, the compound were tested at 10 μM in duplicate with a 0.25% final concentration of both methanol and acetonitrile in presence of the fluorescent substrate BFC (50 μM). The conversion of the BFC (7-benzyloxy-4-trifluoromethylcoumarin) in HFC (7-hydroxy-4-trifluoromethylcoumarin) was determined spectro-fluormetry after incubation with the enzyme during 30 min at 37° C.
For both assays, the fluorescent intensity measured at t=0 is subtracted from that measured after the appropriate incubation time. The ratio of signal-to-noise is calculated by comparing the fluorescence in incubations containing the test compound to the control samples containing the same solvent vehicle. The percent of control activity is calculated and reported as percent inhibition.

[8] = s9, 60 min, 1 μM
Description: The metabolic stability was determined used human liver S9 homogenate that including both microsomal and cytosolic enzyme activities. The test compound was diluted in methanol (0.625%) and acetonitrile (0.625%) at the concentration 1 μM and incubated in the human liver pool (protein=1 mg/mL) during 60 min at 37° C. Peak areas corresponding to all analytes (metabolic products) were determined by HPLC-MS/MS. Areas were recorded and ratios of peak areas of analytes to that of internal standard for each analyte were determined. The ratio of precursor compound remaining after 60 minutes and the amount remaining at time zero, expressed as percent, are reported as metabolic stability. Higher values mean higher metabolic stability.

HT29 = experiment: cells; assay type: cell-based; details: Homo sapiens, HT-29, 48 h; for GI50 / IC (TGI): HT29, 48 hours exposure, SRB; for CC50: read-out: LC50, HT29, 48 hours exposure, SRB
Procedure, shortened: (§1)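 Human tumour lines grown in RPMI 1640 with 10% FBS were seeded at 5×10^3 cells per well, left 18 hours to attach, then exposed to samples (10 to 10^−8 μg/ml) for 48 hours. Growth was quantified by sulphorhodamine B staining of TCA-fixed cells, with absorbance read at 490 nm.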

A549 = experiment: cells; assay type: cell-based; details: Homo sapiens, A549, 48 h; for GI50 / IC (TGI): A549, 48 hours exposure, SRB; for GI50: read-out: GI50; for IC (TGI): read-out: TGI; for CC50: read-out: LC50, A549, 48 hours exposure, SRB
Procedure, shortened: as §1

MCF = experiment: cells; assay type: cell-based; details: Homo sapiens
Procedure, shortened: as §1

MEL-28 = experiment: cells; assay type: cell-based; details: Homo sapiens, SK-MEL-28, 48 h; for GI50 / IC (TGI): MEL-28, 48 hours exposure, SRB; for CC50: read-out: LC50, MEL-28, 48 hours exposure, SRB
Procedure, shortened: as §1

MB231 = experiment: cells; assay type: cell-based; details: Homo sapiens
Procedure, shortened: as §1

A498 = experiment: cells; assay type: cell-based; details: Homo sapiens
Procedure, shortened: as §1

DU145 = experiment: cells; assay type: cell-based; details: Homo sapiens, DU-145, 48 h; for GI50 / IC (TGI): DU145, 48 hours exposure, SRB; for CC50: read-out: LC50, DU145, 48 hours exposure, SRB
Procedure, shortened: as §1

SW-620 = experiment: cells; assay type: cell-based; details: Homo sapiens
Procedure, shortened: as §1

(HEPG2) = details: human, 24 h, 30 μM
Description: The toxic potential of compounds was investigated in vitro using primary human hepatocytes (HEPG2). The compounds were tested at 30 μM in duplicate with a final DMSO concentration of 1%. After incubation during 24 h at 37° C. the cell viability was determined by the conversion of oxided alarmarBlue (resazurin) to reduced alarmarBlue (resorufin). Chlorpromazine was used as reference compound. Results are expressed as a percent of inhibition of control values.

H-MEC-1 = experiment: Inhibition of cells growth by colorimetric assay (SRB), H-MEC-1; assay type: cell-based; details: Homo sapiens, HMEC-1, 48 h
Procedure, shortened: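 Readout: SRB OD490, triplicate wells. Setup: 5×10^3 cells/well, RPMI 1640 + 10% FBS, 37° C, 5% CO2; 18 h pre-attachment; 48 h sample exposure, 10 to 10^−8 μg/ml. Outputs GI, TGI (cytostatic), LC (cytotoxic).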

SK-OV3 = experiment: Inhibition of cells growth by colorimetric assay (SRB), SK-OV3; assay type: cell-based
Description: The finality of these assays is to interrupt the growth of a “in vitro” tumor cell culture by means of a continued exhibition of the cells to the sample to be testing.
A colorimetric type of assay, using sulphorhodamine B (SRB) reaction has been adapted for a quantitative measurement of cell growth and viability [following the technique described by Philip Skehan, et al. (1990), New colorimetric cytotoxicity assay for anticancer drug screening, J. Natl. Cancer Inst., 82:1107-1112]
This form of the assay employs 96 well cell culture microplates of 9 mm diameter (Faircloth, 1988; Mosmann, 1983). Most of the cell lines are obtained from American Type Culture Collection (ATCC) derived from different human cancer types.
Cells are maintained in RPMI 1640 10% FBS, supplemented with 0.1 g/l penicillin and 0.1 g/l streptomycin sulphate and then incubated at 37° C., 5% CO2 and 98% humidity. For the experiments, cells were harvested from subconfluent cultures using trypsin and resuspended in fresh medium before plating.
Cells are seeded in 96 well microtiter plates, at 5×10^3 cells per well in aliquots of 195 μl medium, and they are allowed to attach to the plate surface by growing in drug free medium for 18 hours. Afterward, samples are added in aliquots of 5 μl in a ranging from 10 to 10^−8 μg/ml, dissolved in DMSO/EtOH/PBS (0.5:0.5:99). After 48 hours exposure, the antitumor effect are measured by the SRB methodology: cells are fixed by adding 50 μl of cold 50% (wt/vol) trichloroacetic acid (TCA) and incubating for 60 minutes at 4° C. Plates are washed with deionized water and dried. One hundred μl of SRB solution (0.4% wt/vol in 1% acetic acid) is added to each microtiter well and incubated for 10 minutes at room temperature. Unbound SRB is removed by washing with 1% acetic acid. Plates are air dried and bound stain is solubilized with Tris buffer. Optical densities are read on a automated spectrophotometric plate reader at a single wavelength of 490 nm.
The values for mean+/− SD of data from triplicate wells are calculated. Some parameters for cellular responses can be calculated: GI=growth inhibition, TGI=total growth inhibition (cytostatic effect) and LC=cell killing (cytotoxic effect).

LNCAP = experiment: cells; assay type: cell-based; details: Homo sapiens, LNCaP, 48 h
Procedure, shortened: as §1

IGROV-ET = experiment: cells; assay type: cell-based; details: Homo sapiens, 48 h
Procedure, shortened: as §1

IGROV = experiment: cells; assay type: cell-based; details: Homo sapiens, 48 h
Procedure, shortened: as §1

K562 = experiment: cells; assay type: cell-based; details: Homo sapiens, K562, 48 h
Procedure, shortened: as §1

PANC-1 = experiment: cells; assay type: cell-based; details: Homo sapiens, PANC-1, 48 h
Procedure, shortened: as §1

LOVO-DOX = experiment: cells; assay type: cell-based; details: Homo sapiens, 48 h
Procedure, shortened: as §1

SK-BR3 = experiment: cells; assay type: cell-based; details: Homo sapiens, SK-BR-3, 48 h
Procedure, shortened: as §1

LOVO = experiment: cells; assay type: cell-based; details: Homo sapiens, LoVo, 48 h
Procedure, shortened: as §1

[9] = H-MEC-1, 48 hours exposure, SRB
[10] = IGROV-ET, 48 hours exposure, SRB
[11] = LOVO-DOX, 48 hours exposure, SRB

Sequence of CYP3A4 (P08684 whole entry): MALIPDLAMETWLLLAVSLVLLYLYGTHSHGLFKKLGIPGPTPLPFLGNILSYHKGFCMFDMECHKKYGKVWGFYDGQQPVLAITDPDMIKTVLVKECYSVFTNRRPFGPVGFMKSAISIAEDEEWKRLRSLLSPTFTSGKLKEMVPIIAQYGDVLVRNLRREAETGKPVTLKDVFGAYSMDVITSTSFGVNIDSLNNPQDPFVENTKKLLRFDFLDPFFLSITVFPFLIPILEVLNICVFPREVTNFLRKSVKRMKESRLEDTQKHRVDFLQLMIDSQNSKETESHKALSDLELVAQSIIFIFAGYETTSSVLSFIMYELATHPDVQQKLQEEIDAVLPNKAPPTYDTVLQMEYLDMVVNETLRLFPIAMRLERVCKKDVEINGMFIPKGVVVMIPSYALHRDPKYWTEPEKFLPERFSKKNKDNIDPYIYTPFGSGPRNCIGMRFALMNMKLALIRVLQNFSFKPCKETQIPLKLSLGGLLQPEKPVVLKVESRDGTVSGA

Q: What does the source list for `COc1c(C)cc2c(c1O)[C@@H]1C3[C@@H]4SC[C@]5(NCCc6c5[nH]c5ccc(C)cc65)C(=O)COC[C@@H](c5c6c(c(C)c(OC(C)=O)c54)OCO6)N3[C@@H](O)[C@H](C2)N1C` (stereo partly shown) [Compound 30]?
A: solubility (physchem [1]): 2.24 µM (≈ 1.75 µg/mL); Kidney [2]: 4.19E−09; Skeletal [3]: 2.51E−08; Heart [4]: 5.06E−07; Myelo [5]: 7.58E−09; logD at 60 min (physchem [6]): > 4.9; Liver [7]: 2.72E−07; inhibition at 30 min, 10 µM (CYP3A4): 25%; Human Liver S9 Metabolic Stability (% remaining) [8]: 6 % remaining; GI50 (HT29): 0.104 nM; IC (TGI) (HT29): 0.39 nM; CC50 (HT29): 1.04 nM; GI50 (A549): 0.039 nM; IC (TGI) (A549): 0.26 nM; CC50 (A549): 1.04 nM; CC50 (MCF; 48 h, read-out: LC50): 2.6 nM; GI50 (MCF; MCF, 48 hours exposure, SRB): 0.26 nM; IC (TGI) (MCF; MCF, 48 hours exposure, SRB, read-out: TGI): 0.39 nM; GI50 (MEL-28): 0.026 nM; IC (TGI) (MEL-28): 0.13 nM; CC50 (MEL-28): 0.65 nM; CC50 (MB231; 48 h, read-out: LC50): 3.9 nM; GI50 (MB231; MB231, 48 hours exposure, SRB): 0.0026 nM; IC (TGI) (MB231; MB231, 48 hours exposure, SRB, read-out: TGI): 0.13 nM; CC50 (A498; A498, 48 h, read-out: LC50): 2.6 nM; GI50 (A498; A498, 48 hours exposure, SRB): 0.13 nM; IC (TGI) (A498; A498, 48 hours exposure, SRB): 0.52 nM; GI50 (DU145): 0.013 nM; IC (TGI) (DU145): 0.039 nM; CC50 (DU145): 0.13 nM; CC50 (SW-620; SW-620, 48 h, read-out: LC50): 1.3 nM; IC (TGI) (SW-620; SW-620, 48 hours exposure, SRB): 0.39 nM; GI50 (SW-620; SW-620, 48 hours exposure, SRB, read-out: GI50): 0.026 nM

Q: With `COc1c(C)cc2c(c1O)[C@@H]1C3[C@@H]4SC[C@]5(NCCc6c5[nH]c5ccc(F)cc65)C(=O)COC[C@@H](c5c6c(c(C)c(OC(C)=O)c54)OCO6)N3[C@@H](O)[C@H](C2)N1C` (stereo partly shown) [Compound 35] as the molecule, how does the solubility (physchem [1]) read?
A: < 1 µM

Q: And the Kidney [2]?
A: 3.42E−08

Q: What about the “Cell Viability (% inhibition)” value ((HEPG2)) of the same molecule?
A: 23 % inhibition

Q: And the Skeletal [3]?
A: 3.07E−08

Q: What about the GI50 (H-MEC-1; [9]) of the same molecule?
A: 2.6 nM

Q: And the IC (TGI) (H-MEC-1; [9])?
A: 30.4 nM

Q: And the CC50 (H-MEC-1; read-out: LC50, H-MEC-1, 48 hours exposure, SRB)?
A: 12900 nM

Q: What about the Heart [4] of the same molecule?
A: 1.93E−08

Q: What about the Myelo [5] of the same molecule?
A: 4.08E−08

Q: What about the logD at 60 min (physchem [6]) of the same molecule?
A: > 5

Q: And the Liver [7]?
A: 4.88E−08

Q: What about the inhibition at 30 min, 10 µM (CYP3A4) of the same molecule?
A: 24%

Q: And the GI50 (SK-OV3; Homo sapiens, SK-OV-3, 48 h, SK-OV3, 48 hours exposure, SRB)?
A: 4.37 nM

Q: What about the CC50 (SK-OV3; Homo sapiens, SK-OV-3, 48 h, read-out: LC50, SK-OV3, 48 hours exposure, SRB) of the same molecule?
A: 12900 nM

Q: And the TGI (SK-OV3; SK-OV3, 48 hours exposure, SRB)?
A: 1.46E−08 Molar

Q: And the “Human Liver S9 Metabolic Stability (% remaining)” value [8]?
A: 4 % remaining

Q: What about the GI50 (HT29) of the same molecule?
A: 4.19 nM

Q: And the IC (TGI) (HT29)?
A: 13.2 nM

Q: What about the CC50 (HT29) of the same molecule?
A: 12900 nM

Q: What about the GI50 (LNCAP; 48 hours exposure, SRB) of the same molecule?
A: 0.816 nM

Q: What about the IC (TGI) (LNCAP; 48 hours exposure, SRB) of the same molecule?
A: 2.5 nM

Q: And the CC50 (LNCAP; read-out: LC50, LNCAP, 48 hours exposure, SRB)?
A: 7.48 nM

Q: And the GI50 (A549)?
A: 3.03 nM

Q: And the IC (TGI) (A549)?
A: 7.65 nM

Q: What about the CC50 (A549) of the same molecule?
A: 4090 nM

Q: What about the GI50 (IGROV-ET; [10]) of the same molecule?
A: 5.53 nM

Q: What about the IC (TGI) (IGROV-ET; [10]) of the same molecule?
A: 23.5 nM

Q: What about the CC50 (IGROV-ET; read-out: LC50, IGROV-ET, 48 hours exposure, SRB) of the same molecule?
A: 12900 nM

Q: What about the GI50 (IGROV; 48 hours exposure, SRB) of the same molecule?
A: 3.45 nM

Q: What about the IC (TGI) (IGROV; 48 hours exposure, SRB) of the same molecule?
A: 7.72 nM

Q: What about the CC50 (IGROV; read-out: LC50, IGROV, 48 hours exposure, SRB) of the same molecule?
A: 3380 nM

Q: And the GI50 (K562; K562, 48 hours exposure, SRB)?
A: 1.14 nM

Q: What about the IC (TGI) (K562; K562, 48 hours exposure, SRB) of the same molecule?
A: 2.67 nM

Q: And the CC50 (K562; read-out: LC50, K562, 48 hours exposure, SRB)?
A: 10.2 nM

Q: And the GI50 (PANC-1; PANC-1, 48 hours exposure, SRB)?
A: 4.52 nM

Q: And the IC (TGI) (PANC-1; PANC-1, 48 hours exposure, SRB)?
A: 42.1 nM

Q: And the CC50 (PANC-1; read-out: LC50, PANC-1, 48 hours exposure, SRB)?
A: 12900 nM

Q: And the GI50 (LOVO-DOX; [11])?
A: 26.8 nM

Q: And the IC (TGI) (LOVO-DOX; [11])?
A: 124 nM

Q: And the CC50 (LOVO-DOX; read-out: LC50, LOVO-DOX, 48 hours exposure, SRB)?
A: 12900 nM

Q: And the GI50 (MEL-28)?
A: 2.78 nM

Q: What about the IC (TGI) (MEL-28) of the same molecule?
A: 7.16 nM

Q: And the CC50 (MEL-28)?
A: 47 nM

Q: And the GI50 (SK-BR3; SK-BR3, 48 hours exposure, SRB)?
A: 2.21 nM

Q: And the IC (TGI) (SK-BR3; SK-BR3, 48 hours exposure, SRB)?
A: 6.55 nM

Q: What about the CC50 (SK-BR3; read-out: LC50, SK-BR3, 48 hours exposure, SRB) of the same molecule?
A: 1090 nM

Q: And the GI50 (LOVO; 48 hours exposure, SRB)?
A: 2.26 nM

Q: What about the IC (TGI) (LOVO; 48 hours exposure, SRB) of the same molecule?
A: 5.68 nM

Q: And the CC50 (LOVO; read-out: LC50, LOVO, 48 hours exposure, SRB)?
A: 12.9 nM

Q: What about the GI50 (DU145) of the same molecule?
A: 3.83 nM

Q: What about the IC (TGI) (DU145) of the same molecule?
A: 12 nM

Q: What about the CC50 (DU145) of the same molecule?
A: 12900 nM
